For orientation: pIC50 means the negative decadic logarithm of the IC50, by convention in mol/L.

SMILES strings stand for the structures. pIC50: −log10 of the molar value. Bounds are passed on as bounds.

Format in all cases: cell-based
Test [1] has as its target Sodium- and chloride-dependent GABA transporter 1 (Homo sapiens, UniProt P30531). Description: Inhibition of human […] expressed in tsA201 cells assessed as inhibition of [3H]GABA uptake by liquid scintillation method.
In test [2] the target is T1, Sodium- and chloride-dependent GABA transporter 3 (Homo sapiens, UniProt P48066).
T1 sequence (P48066 whole entry): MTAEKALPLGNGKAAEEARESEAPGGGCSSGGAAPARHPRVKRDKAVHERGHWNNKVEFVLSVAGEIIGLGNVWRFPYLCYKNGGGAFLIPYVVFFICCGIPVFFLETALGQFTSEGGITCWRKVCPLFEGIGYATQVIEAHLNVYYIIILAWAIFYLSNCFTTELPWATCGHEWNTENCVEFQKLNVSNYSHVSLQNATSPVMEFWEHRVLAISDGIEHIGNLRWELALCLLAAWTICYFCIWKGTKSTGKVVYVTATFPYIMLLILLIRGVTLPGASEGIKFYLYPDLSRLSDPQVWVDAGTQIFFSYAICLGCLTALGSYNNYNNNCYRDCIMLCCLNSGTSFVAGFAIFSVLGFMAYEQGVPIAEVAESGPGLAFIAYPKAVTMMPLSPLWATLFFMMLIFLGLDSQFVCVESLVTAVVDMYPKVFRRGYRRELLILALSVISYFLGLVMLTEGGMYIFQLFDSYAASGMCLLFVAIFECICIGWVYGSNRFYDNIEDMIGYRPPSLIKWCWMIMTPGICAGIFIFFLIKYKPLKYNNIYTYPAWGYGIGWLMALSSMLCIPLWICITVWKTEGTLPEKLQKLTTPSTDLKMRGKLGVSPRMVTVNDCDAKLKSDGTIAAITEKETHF
Kind of test: Inhibition of human […] expressed in tsA201 cells assessed as inhibition of [3H]GABA uptake by liquid scintillation method.

For test [3], the target named is T2, Sodium- and chloride-dependent betaine transporter (Homo sapiens, UniProt P48065).
T2 sequence (P48065 whole entry): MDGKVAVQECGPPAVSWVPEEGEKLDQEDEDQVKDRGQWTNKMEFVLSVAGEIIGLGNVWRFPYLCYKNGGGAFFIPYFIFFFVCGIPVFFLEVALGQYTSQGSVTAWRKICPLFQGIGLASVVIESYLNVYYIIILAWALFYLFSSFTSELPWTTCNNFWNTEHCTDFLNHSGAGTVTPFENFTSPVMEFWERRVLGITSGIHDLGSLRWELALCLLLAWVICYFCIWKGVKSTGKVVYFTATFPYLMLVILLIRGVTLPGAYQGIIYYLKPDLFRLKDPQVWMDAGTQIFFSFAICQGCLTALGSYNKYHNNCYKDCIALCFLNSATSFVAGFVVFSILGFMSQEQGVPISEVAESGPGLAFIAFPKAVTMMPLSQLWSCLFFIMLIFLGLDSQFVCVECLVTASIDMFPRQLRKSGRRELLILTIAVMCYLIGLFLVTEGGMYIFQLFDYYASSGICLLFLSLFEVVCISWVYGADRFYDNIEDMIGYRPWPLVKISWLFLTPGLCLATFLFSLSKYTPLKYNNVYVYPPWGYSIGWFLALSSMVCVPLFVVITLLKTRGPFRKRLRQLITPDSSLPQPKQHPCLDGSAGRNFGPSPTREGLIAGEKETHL
Description: Inhibition of human BGT1 expressed in tsA201 cells assessed as inhibition of [3H]GABA uptake by liquid scintillation method.

Test [4] addresses T3, Sodium- and chloride-dependent GABA transporter 2 (Homo sapiens, UniProt Q9NSD5).
T3 sequence (Q9NSD5 whole entry): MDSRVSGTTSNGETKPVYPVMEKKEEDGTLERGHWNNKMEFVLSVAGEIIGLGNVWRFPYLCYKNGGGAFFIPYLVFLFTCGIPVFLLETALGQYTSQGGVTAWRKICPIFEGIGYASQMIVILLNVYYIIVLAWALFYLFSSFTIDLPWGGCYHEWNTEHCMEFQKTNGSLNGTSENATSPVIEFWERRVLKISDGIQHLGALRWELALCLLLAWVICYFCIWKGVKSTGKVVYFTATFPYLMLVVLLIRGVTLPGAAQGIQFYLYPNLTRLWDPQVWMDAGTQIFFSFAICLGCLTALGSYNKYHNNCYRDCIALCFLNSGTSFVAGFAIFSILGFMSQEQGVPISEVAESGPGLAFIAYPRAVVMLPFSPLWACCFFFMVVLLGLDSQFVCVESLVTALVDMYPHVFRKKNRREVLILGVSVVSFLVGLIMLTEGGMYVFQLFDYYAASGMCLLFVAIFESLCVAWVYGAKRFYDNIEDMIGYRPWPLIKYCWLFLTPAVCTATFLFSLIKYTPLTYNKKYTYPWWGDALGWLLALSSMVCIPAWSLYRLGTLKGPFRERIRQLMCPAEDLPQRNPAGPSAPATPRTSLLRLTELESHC
Kind of test: Inhibition of human […] expressed in tsA201 cells assessed as inhibition of [3H]GABA uptake by liquid scintillation method.

Chain of Sodium- and chloride-dependent GABA transporter 1 (P30531 whole entry): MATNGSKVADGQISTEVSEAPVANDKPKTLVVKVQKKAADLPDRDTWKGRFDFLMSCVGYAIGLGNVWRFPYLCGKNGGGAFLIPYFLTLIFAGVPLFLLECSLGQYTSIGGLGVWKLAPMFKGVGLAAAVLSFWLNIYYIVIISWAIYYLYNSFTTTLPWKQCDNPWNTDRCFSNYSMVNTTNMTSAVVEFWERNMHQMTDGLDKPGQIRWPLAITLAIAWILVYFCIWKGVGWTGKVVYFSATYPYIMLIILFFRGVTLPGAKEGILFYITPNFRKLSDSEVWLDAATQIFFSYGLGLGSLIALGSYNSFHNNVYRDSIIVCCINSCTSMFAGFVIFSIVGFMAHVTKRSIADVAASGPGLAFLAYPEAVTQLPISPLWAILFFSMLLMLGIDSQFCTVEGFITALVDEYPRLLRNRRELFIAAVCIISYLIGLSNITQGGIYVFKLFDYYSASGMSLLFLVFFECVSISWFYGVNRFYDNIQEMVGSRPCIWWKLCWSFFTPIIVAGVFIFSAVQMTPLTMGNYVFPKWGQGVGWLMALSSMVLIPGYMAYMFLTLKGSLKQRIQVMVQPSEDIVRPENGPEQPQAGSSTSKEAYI

For the compound `NCC(N)C(=O)O` (centres undefined), the negative logarithm of the IC50 (pIC50) in test [1] is < 3.00; in test [2], 4.50; in test [3], 3.20; in test [4] it was 4.40.

(Values after ChEMBL document CHEMBL4765247, “Novel mouse GABA uptake inhibitors with enhanced inhibitory activity toward mGAT3/4 and their effect on pain threshold in mice” (Eur J Med Chem, 2020).)
